From patent US8133849B2, “Herbicidal compounds” (Syngenta Limited, priority 2007, dated 2012)

Tests used:
Experiment in all cases: Example B2 herbicidal action, post-emergence, pots in glasshouse, damage score 0-10
Type in all cases: in vivo
Conditions in all cases: application post-emergence, rate 1000 g/ha, evaluated after 13 days
Ipomea hederaceae = test system: Ipomea hederaceae
How it was run: (§1)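 Pot-grown plants were sprayed post-emergence at 8 days with active ingredient in aqueous spray derived from acetone/water (50:50) containing 0.5% Tween 20. Glasshouse conditions were 24/16° C day/night, 14 h light and 65% humidity, with watering twice daily. Damage was scored 13 days after spraying.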

Solanum nigrum = test system: Solanum nigrum
How it was run: as §1

Amaranthus retroflexus = test system: Amaranthus retroflexus
How it was run: as §1

Echinochloa crus-galli = test system: Echinochloa crus-galli
How it was run: as §1

Setaria faberi = test system: Setaria faberi
How it was run: as §1

| Compound | IPOHE damage score (10=total damage to plant; 0=no damage to plant) (Ipomea hederaceae) | SOLNI damage score (10=total damage to plant; 0=no damage to plant) (Solanum nigrum) | AMARE damage score (10=total damage to plant; 0=no damage to plant) (Amaranthus retroflexus) | ECHCG damage score (10=total damage to plant; 0=no damage to plant) (Echinochloa crus-galli) | SETFA damage score (10=total damage to plant; 0=no damage to plant) (Setaria faberi) |
| --- | --- | --- | --- | --- | --- |
| CCSC(=O)OC1=C(c2c(Cl)ccc(Cl)c2C(F)(F)F)S(=O)(=O)N(CC(F)F)c2nccnc21 [Compound C103] | 6 | 9 | 8 | 7 | 6 |
| CCN1c2nccnc2C(O)=C(c2ccccc2OC(F)(F)F)S1(=O)=O [Compound D5] | 9 | 10 | 10 | 4 | 6 |
| CCSC(=O)OC1=C(c2cc(C(F)(F)F)ccc2Br)S(=O)(=O)N(CC(F)F)c2nccnc21 [Compound C60] | 10 | 10 | 10 | 7 | 1 |
| CCN1c2nccnc2C(OC(=O)C(C)C)=C(c2cc(Cl)ccc2C(F)(F)F)S1(=O)=O [Compound C110] | 8 | 8 | 9 | 5 | 4 |
| CCN1c2nccnc2C(OC(=O)C(C)C)=C(c2c(Cl)cccc2C(F)(F)F)S1(=O)=O [Compound C30] | 9 | 10 | 8 | 6 | 5 |
| CCN1c2nccnc2C(O)=C(c2c(F)ccc(Cl)c2Cl)S1(=O)=O [Compound D4] | 10 | 10 | 8 | 4 | 2 |
| CCN1c2nccnc2C(O)=C(c2cc(Cl)ccc2C(F)(F)F)S1(=O)=O [Compound D52] | 5 | 7 | 5 | 4 | 4 |
| CC(C)C(=O)OC1=C(c2c(F)ccc(Cl)c2Cl)S(=O)(=O)N(CC(F)F)c2nccnc21 [Compound C36] | 10 | 9 | 9 | 7 | 3 |
| C#CCN1c2nccnc2C(OC(=O)C(C)(C)C)=C(c2c(Cl)ccc(Cl)c2C(F)(F)F)S1(=O)=O [Compound C86] | 4 | 6 | 5 | 5 | 2 |
| CC(C)C(=O)OC1=C(c2ccc(Cl)cc2Cl)S(=O)(=O)N(CC(F)(F)C(F)F)c2nccnc21 [Compound C122] | 6 | 9 | 5 | 2 | 3 |
| CC(C)C(=O)OC1=C(c2cc(C(F)(F)F)ccc2Cl)S(=O)(=O)N(C=CCl)c2nccnc21 (mixture of isomers) [Compound C114] | 6 | 10 | 4 | 0 | 2 |
| CC(C)C(=O)OC1=C(c2c(C(F)(F)F)cccc2C(F)(F)F)S(=O)(=O)N(CC(F)F)c2nccnc21 [Compound C79] | 9 | 9 | 9 | 7 | 6 |
| CC(C)C(=O)OC1=C(c2ccc(Cl)cc2Cl)S(=O)(=O)N(CC(Cl)Cl)c2nccnc21 [Compound C116] | 6 | 10 | 10 | 2 | 3 |
